Test results taken from patent US20260083750A1, “SMALL MOLECULE INHIBITORS OF KRAS PROTEINS” (MERCK SHARP & DOHME LLC, priority 2022, published 2026).
pIC50: −log10 of the molar value.

How the values were obtained:
[1] = system: SW620 cells (homozygous KRAS-G12V activating mutation); test: Cellular phospho-ERK assay in G12V cell line; format: cell-based; conditions: Homo sapiens, SW-620, 2 hours compound incubation, ratio of p-ERK vs. total ERK, read-out: SW620 pERK IC50
Method: (§1) Procedure for Cellular Phospho-ERK Assay in G12D and G12V Cell Lines
(§2) PANC08.13 cells (ATCC® CRL-2551™), containing homozygous KRAS-G12D activating mutation, were cultured in growth medium made of RPMI1640-GlutaMAX™—I (ThermoFisher Scientific 61870) containing 15% heat inactivated fetal bovine serum (ThermoFisher Scientific 10091148)). SW620 cells (ATCC® […]), containing homozygous KRAS-G12V activating mutation, were cultured in growth medium that contains RPMI 1640-GlutaMAX™—I (ThermoFisher Scientific 61870) containing 10% heat inactivated fetal bovine serum (ThermoFisher Scientific 10091148).
(§3) Cells for the assay were harvested in growth medium after TrypLE (ThermoFisher scientific 12604021) digestion and were seeded in a 384-well collagen coated cell culture plate (Corning 356702) at a density of 10,000-15,000 cells/20 uL/well, and incubated at 37° C., 5% CO2 overnight. The compound (with 10 mM stock concentration) dose-response titrations were prepared [30 μM final ERK detection assay concentration and 1:3 dilutions, 10-point dose response] and appropriate amounts (270 nL) of test compounds were dispensed in a 384-well intermediate plate using an Echo 550 liquid handler. 30 uL/well of RPMI medium 1640-GlutaMAX™—I was added to the intermediate plate and the contents of the intermediate plate (10 uL/well) were then transferred to the 384-well collagen coated cell culture plate, which was incubated at 37° C., 5% CO2 for 2 hours. After removal of medium from the collagen coated cell culture plate, cells were lysed in lysis buffer from Alpha SureFire® Ultra™ Multiplex p-ERK and total ERK assay kit (PerkinElmer MPSU-PTERK) containing Halt™ Protease and Phosphatase inhibitor cocktail (ThermoFisher Scientific 78446) at room temperature with constant shaking at 300 rpm for 30 minutes. The cell lysates were then transferred to an OptiPlate-384 plate (PerkinElmer 6005620), and the phosphorylation of ERK (p-ERK) and total ERK levels were detected by Alpha SureFire® Ultra™ Multiplex p-EEK kit and total ERK assay kit (PerkinElmer MPSU-PTERK) following the manufacturer's protocol. Assay plates were read on a EnVision Multimode Plate Reader (PerkinElmer), and the ratio of p-ERK vs. total ERK in each well was used as the final readout. Dose response curves were analyzed using a 4-parameter logistic model to calculate IC50 values using Spotfire software.

KRAS-G12D = biological target: T1, KRAS-G12D (Homo sapiens, UniProt P01116, G12D); test: SOS-catalyzed nucleotide exchange assay (Procedure A, TR-FRET); format: biochemical; conditions: 60 min preincubation, SOS + GTP, read-out: KRAS G12D GNE IC50
T1 construct: N-terminal biotin-acceptor peptide […]
Excerpt: (§4) Procedure for SOS-Catalyzed Nucleotide Exchange Assay for KRAS-G12C/D/V, G13D, HRAS, and NRAS (Procedure A)
(§5) Recombinant KRAS-G12C protein used in this assay has an additional triple mutation (C51S/C80L/C118S), whereas KRAS-G12D/V, G13D, HRAS and NRAS are in context of their WT protein sequence background. Specifically, the SOS-catalyzed nucleotide exchange assay utilizes a preformed TR-FRET complex containing a specific biotinylated RAS protein (KRAS-G12C/V/D, G13D, HRAS, NRAS; described above) with Bodipy-GDP, and Terbium-streptavidin. Compounds are preincubated with this complex for 60 minutes. Subsequently, recombinant human SOS protein and unlabeled GTP are added to initiate the exchange reaction. Small molecule inhibitors stabilize the Bodipy-GDP complex whereas the untreated protein rapidly exchanges Bodipy-GDP for unlabeled GTP resulting in reduced TR-FRET signal.
(§6) To assemble the preformed TR-FRET complexes, each biotinylated RAS protein is diluted to 2 μM in an EDTA Buffer (20 mM HEPES pH 7.5, 50 mM sodium chloride, 10 mM EDTA, and 0.01% Tween) and incubated at room temperature for one hour. This mixture is then further diluted to 90 nM in an Assay Buffer (20 mM HEPES pH 7.5, 150 mM sodium chloride, 10 mM magnesium chloride, and 0.005% Tween) containing 15 nM of Terbium-Streptavidin (Invitrogen, catalog #PV3577) and 900 nM of Bodipy-GDP (Invitrogen, catalog #G22360) and incubated at room temperature for six hours. It should be noted that this preformed TR-FRET complex for each of the RAS protein were made ahead of time, aliquoted and stored at −80° C. until the day of the experiment.
(§7) Each test compound (10 mM stock in DMSO) is diluted in DMSO to make a final-10-point, 3-fold dilution and is acoustically dispensed into a 384-well assay plate (Corning, catalog #3820) using an Echo 550 (Labcyte). Each well of the assay plate receives 3 μL of a specific 3× RAS preformed TR-FRET complex and 3 μL of Assay Buffer and is incubated at room temperature for 60 minutes (preincubation time). Each well then receives 3 μL of 3× recombinant human SOS protein and GTP (Sigma, G8877) in Assay Buffer and is incubated at room temperature for 30 minutes (G13D), 60 minutes (G12C/D, H/NRAS) or 90 minutes for G12V. The final reaction in each well of […] consists of 3 mM GTP, specific Ras and SOS proteins in the following concentrations: KRAS-G12C/SOS=3 nM/40 nM, KRAS-G12D/SOS=1 nM/40 nM, KRAS-G12V/SOS=1.25 nM/160 nM, KRAS-G13D/SOS=1.25 nM/0 nM, HRAS & NRAS=1.25 nM/40 nM.
(§8) The time-resolved fluorescence resonance energy transfer (TR-FRET) signal is measured on an Envision (PerkinElmer) plate reader: Excitation filter=340 nm; emission1=495 nm; emission2=520 nm; dichroic mirror=D400/D505; delay time=[…]. The signal of each well is determined as the ratio of the emission at 520 nm to that at 495 nm. […] The apparent effect as a function of compound concentration is fit to a four-parameter logistic equation.

KRAS-G12V = biological target: T2, KRAS-G12V (Homo sapiens, UniProt P01116, G12V); test: as above; format: biochemical; conditions: 60 min preincubation, SOS + GTP, read-out: KRAS G12V GNE IC50
T2 construct: N-terminal biotin-acceptor peptide […]
Excerpt: as §4, §5, §6, §7, §8

[2] = biological target: T3, KRAS-G12C (C51S/C80L/C118S) (Homo sapiens, UniProt P01116, C118S/C51S/C80L/G12C); test: as above; format: biochemical; conditions: 60 min preincubation, SOS + GTP, read-out: KRAS G12C GNE IC50
T3 construct: N-terminal biotin-acceptor peptide […]
Excerpt: as §4, §5, §6, §7, §8

KRAS-G13D = biological target: T4, KRAS-G13D (Homo sapiens, UniProt P01116, G13D); test: as above; format: biochemical; conditions: 60 min preincubation, GTP, read-out: KRAS G13D GNE IC50
T4 construct: N-terminal biotin-acceptor peptide […]
Excerpt: as §4, §5, §6, §7, §8

NRAS = NRAS (Homo sapiens, UniProt P01111); test: as above; format: biochemical; conditions: 60 min preincubation, SOS + GTP, read-out: NRAS GNE IC50
Excerpt: as §4, §5, §6, §7
(§9) The time-resolved fluorescence resonance energy transfer (TR-FRET) signal is measured on an Envision (PerkinElmer) plate reader: Excitation filter=340 nm; emission1=495 nm; emission2=520 nm; dichroic mirror=D400/D505; delay time=[…]. The signal of each well is determined as the ratio of the emission at 520 nm to that at 495 nm. Percent effect of each well is determined after normalization to control wells containing DMSO (no effect) or a saturating concentration of inhibitor (max effect). The apparent effect as a function of compound concentration is fit to a four-parameter logistic equation.

HRAS = HRAS (Homo sapiens, UniProt P01112); test: as above; format: biochemical; conditions: 60 min preincubation, SOS + GTP, read-out: HRAS GNE IC50
Excerpt: as §4, §5, §6, §7, §9

[3] = system: PANC08.13 cells (homozygous KRAS-G12D activating mutation); test: Cellular phospho-ERK assay in G12D cell line; format: cell-based; conditions: Homo sapiens, PANC-08-13, 2 hours compound incubation, ratio of p-ERK vs. total ERK, read-out: PANC 0813 pERK IC50
Method: as §1, §2, §3

T4 sequence (P01116 with tags, fused parts or gaps isoform P01116-2 G13D): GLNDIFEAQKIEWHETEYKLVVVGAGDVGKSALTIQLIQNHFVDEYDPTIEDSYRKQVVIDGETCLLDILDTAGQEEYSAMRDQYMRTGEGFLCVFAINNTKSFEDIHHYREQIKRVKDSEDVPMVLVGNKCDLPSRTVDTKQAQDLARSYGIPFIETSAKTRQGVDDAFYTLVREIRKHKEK
T1 sequence (P01116 with tags, fused parts or gaps isoform P01116-2 G12D): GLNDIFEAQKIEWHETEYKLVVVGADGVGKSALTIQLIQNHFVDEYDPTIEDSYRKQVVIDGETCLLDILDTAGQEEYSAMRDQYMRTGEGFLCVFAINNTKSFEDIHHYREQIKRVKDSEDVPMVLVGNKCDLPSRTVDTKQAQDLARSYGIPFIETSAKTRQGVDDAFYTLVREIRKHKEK
T2 sequence (P01116 with tags, fused parts or gaps isoform P01116-2 G12V): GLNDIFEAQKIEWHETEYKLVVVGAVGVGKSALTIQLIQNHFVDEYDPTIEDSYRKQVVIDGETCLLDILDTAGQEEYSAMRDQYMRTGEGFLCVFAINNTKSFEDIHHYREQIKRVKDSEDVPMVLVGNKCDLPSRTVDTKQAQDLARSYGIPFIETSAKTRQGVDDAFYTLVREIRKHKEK
NRAS, sequence (P01111 with tags, fused parts or gaps): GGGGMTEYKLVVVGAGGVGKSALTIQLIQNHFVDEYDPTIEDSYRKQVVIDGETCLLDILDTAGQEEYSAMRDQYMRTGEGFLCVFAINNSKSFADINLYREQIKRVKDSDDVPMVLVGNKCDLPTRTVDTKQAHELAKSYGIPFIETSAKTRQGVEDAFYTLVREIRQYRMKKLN
HRAS, sequence (P01112 with tags, fused parts or gaps): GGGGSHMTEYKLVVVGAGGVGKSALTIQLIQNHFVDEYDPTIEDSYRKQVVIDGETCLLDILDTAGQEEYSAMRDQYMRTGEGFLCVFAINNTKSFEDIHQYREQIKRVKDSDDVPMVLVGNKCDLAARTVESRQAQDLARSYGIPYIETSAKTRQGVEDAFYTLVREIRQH
T3 sequence (P01116 with tags, fused parts or gaps isoform P01116-2 G12C/C51S/C80L/C118S): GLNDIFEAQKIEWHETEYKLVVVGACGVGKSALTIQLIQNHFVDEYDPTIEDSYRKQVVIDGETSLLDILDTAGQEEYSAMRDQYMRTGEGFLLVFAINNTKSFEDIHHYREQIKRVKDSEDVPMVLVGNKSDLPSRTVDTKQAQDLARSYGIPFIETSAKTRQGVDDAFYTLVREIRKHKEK

C[C@H]1CCOCCN1c1nc(OC[C@@]23CCCN2C[C@H](F)C3)nc2c(F)c(-c3ccc(F)c4sc(N)c(C#N)c34)c(Cl)cc12 (single isomer, unassigned) [Ex. 19]
pIC50 [1]: 7.82
pIC50 (KRAS-G12D): 8.62
pIC50 (KRAS-G12V): 8.63
pIC50 [2]: 8.22
pIC50 (KRAS-G13D): 8.63
pIC50 (NRAS): 5.37
pIC50 (HRAS): 5.68
pIC50 [3]: 7.47

N#Cc1c(N)sc2c(F)ccc(-c3c(Cl)cc4c(N5CCCCCC5)nc(OC[C@@]56CCCN5C[C@H](F)C6)nc4c3F)c12 [Ex. 1, 2-amino-4-(4-(azepan-1-yl)-6-chloro-8-fluoro-2-(((2R,7aS)-2-fluorotetrahydro-1H-pyrrolizin-7a(5H)-yl)methoxy)quinazolin-7-yl)-7-fluorobenzo[b]thiophene-3-carbonitrile]
pIC50 [1]: 7.13
pIC50 (NRAS): < 4.96
pIC50 (HRAS): < 4.96
pIC50 [3]: 7.16

C[C@@H]1CCCCCN1c1nc(OC[C@@]23CCCN2C[C@H](F)C3)nc2c(F)c(-c3ccc(F)c4sc(N)c(C#N)c34)c(Cl)cc12 [Ex. 2, 2-amino-4-(6-chloro-8-fluoro-2-(((2R,7aS)-2-fluorotetrahydro-1H-pyrrolizin-7a(5H)-yl)methoxy)-4-((R)-2-methylazepan-1-yl)quinazolin-7-yl)-7-fluorobenzo[b]thio-phene-3-carbonitrile]
pIC50 [1]: 6.39
pIC50 (KRAS-G12D): 8.06
pIC50 (KRAS-G12V): 7.88
pIC50 [3]: 6.43

C[C@H]1CCCCCN1c1nc(OC[C@@]23CCCN2C[C@H](F)C3)nc2c(F)c(-c3ccc(F)c4sc(N)c(C#N)c34)c(Cl)cc12 [Ex. 3, 2-amino-4-(6-chloro-8-fluoro-2-(((2R,7aS)-2-fluorotetrahydro-1H-pyrrolizin-7a(5H)-yl)methoxy)-4-((S)-2-methylazepan-1-yl)quinazolin-7-yl)-7-fluorobenzo[b]thio-phene-3-carbonitrile]
pIC50 [1]: 6.09
pIC50 (KRAS-G12D): 6.95
pIC50 (KRAS-G12V): 7.39
pIC50 [2]: 7.51
pIC50 (KRAS-G13D): 7.26
pIC50 (NRAS): < 4.96
pIC50 (HRAS): < 4.96
pIC50 [3]: 6.11

N#Cc1c(N)sc2c(F)ccc(-c3c(Cl)cc4c(N5CCOCCC5C5CC5)nc(OC[C@@]56CCCN5C[C@H](F)C6)nc4c3F)c12 (stereo partly drawn) [compound 17, 2-amino-4-(6-chloro-4-(5-cyclopropyl-1,4-oxazepan-4-yl)-8-fluoro-2-(((2R,7aS)-2-fluorotetrahydro-1H-pyrrolizin-7a(5H)-yl)methoxy)quinazo-lin-7-yl)-7-fluorobenzo[b]thio-phene-3-carbonitrile]
pIC50 (KRAS-G12D): 6.73
pIC50 (KRAS-G12V): 7.36
pIC50 [2]: 7.29
pIC50 (KRAS-G13D): 7.20
pIC50 (NRAS): < 4.96
pIC50 (HRAS): < 4.96
pIC50 [3]: 5.65

C[C@H]1CCOCCN1c1nc(OC[C@]2(CN(C)C)CC2(F)F)nc2c(F)c(-c3ccc(F)c4sc(N)c(C#N)c34)ncc12 [compound 22, 2-amino-4-(2-(((R)-1-((dimethylamino)meth-yl)-2,2-difluorocyclopropyl)methoxy)-8-fluoro-4-((S)-5-methyl-1,4-oxazepan-4-yl)pyrido[4,3-d]pyrimidin-7-yl)-7-fluorobenzo[b]thiophene-3-carbonitrile]
pIC50 (KRAS-G12D): 6.60
pIC50 (KRAS-G12V): 7.31
pIC50 [2]: 7.65
pIC50 (KRAS-G13D): 7.35
pIC50 (NRAS): < 4.96
pIC50 (HRAS): < 4.96
pIC50 [3]: 6.38

CCNC[C@@]1(COc2nc(N3CCCOCC3)c3cc(Cl)c(-c4ccc(F)c5sc(N)c(C#N)c45)c(F)c3n2)CC1(F)F [compound 30, 2-amino-4-(6-chloro-2-(((R)-1-((ethylamino)methyl)-2,2-difluorocyclopropyl)methoxy)-8-fluoro-4-(1,4-oxazepan-4-yl)quinazolin-7-yl)-7-fluorobenzo[b]thiophene-3-carbonitrile]
pIC50 [1]: 6.52
pIC50 (KRAS-G12D): 6.69
pIC50 (KRAS-G12V): 7.48
pIC50 [3]: 6.07

CN1CCC[C@H]1COc1nc(N2CCCOCC2)c2cc(Br)c(-c3ccc(F)c4sc(N)c(C#N)c34)c(F)c2n1 [compound 38, 2-amino-4-(6-bromo-8-fluoro-2-(((S)-1-methylpyrrolidin-2-yl)methoxy)-4-(1,4-oxazepan-4-yl)quinazolin-7-yl)-7-fluorobenzo[b]thiophene-3-carbonitrile]
pIC50 (KRAS-G12D): 7.33
pIC50 (KRAS-G12V): 8.05
pIC50 [2]: 7.52
pIC50 (KRAS-G13D): 7.76
pIC50 (NRAS): < 4.96
pIC50 (HRAS): < 4.96
pIC50 [3]: 6.52
